Test results from ChEMBL document CHEMBL1201862, “PubChem BioAssay data set” (2004).
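Values below derive from 48-hour exposures of cells grown in 96-well plates, with endpoints linearly interpolated between the two concentrations bracketing the appropriate inhibition level. GI50 marks 50% less growth.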 Active and inactive are the calls of the source. Cut-off read from the data, not from the text of the source: active = GI50 up to about 1.1 µM and inactive = higher.

Key:
Assay in all cases: inhibition of tumour cell growth, NCI panel, 48 h
786-0 = test system: 786-0
A498 = test system: A498
A549 = test system: A549
ACHN = test system: ACHN
CAKI-1 = test system: CAKI-1
CCRF-CEM = test system: CCRF-CEM
DLD-1 = test system: DLD-1
DMS-114 = test system: DMS-114
DMS-273 = test system: DMS-273
EKVX = test system: EKVX
HCC 2998 = test system: HCC 2998
HCT-116 = test system: HCT-116
HCT-15 = test system: HCT-15
HL-60 = test system: HL-60
HOP-18 = test system: HOP-18
HOP-92 = test system: HOP-92
HT-29 = test system: HT-29
K562 = test system: K562
KM-20L2 = test system: KM-20L2
KM12 = test system: KM12
LOX IMVI = test system: LOX IMVI
LXFL 529 = test system: LXFL 529
M14 = test system: M14
M19-MEL = test system: M19-MEL
MOLT-4 = test system: MOLT-4
Malme-3M = test system: Malme-3M
NCI-H226 = test system: NCI-H226
NCI-H23 = test system: NCI-H23
NCI-H460 = test system: NCI-H460
OVCAR-3 = test system: OVCAR-3
OVCAR-4 = test system: OVCAR-4
OVCAR-5 = test system: OVCAR-5
OVCAR-8 = test system: OVCAR-8
RPMI-8226 = test system: RPMI-8226
RXF 393 = test system: RXF 393
RXF 631 = test system: RXF 631
SF-295 = test system: SF-295
SF-539 = test system: SF-539
SK-MEL-28 = test system: SK-MEL-28
SK-MEL-2 = test system: SK-MEL-2
SK-MEL-5 = test system: SK-MEL-5
SN12C = test system: SN12C
SNB-19 = test system: SNB-19
SNB-75 = test system: SNB-75
SR = test system: SR
SW-620 = test system: SW-620
TK-10 = test system: TK-10
U-251 = test system: U-251
UACC-257 = test system: UACC-257
UACC-62 = test system: UACC-62
UO-31 = test system: UO-31
XF498 = test system: XF498

CC(=O)N(C)C=C1C(=O)N(C)C(=O)N(C)C1=O
GI50 (786-0): > 100 µM (inactive)
GI50 (A498): > 100 µM (inactive)
GI50 (A549): > 100 µM (inactive)
GI50 (ACHN): > 100 µM (inactive)
GI50 (CAKI-1): > 100 µM (inactive)
GI50 (CCRF-CEM): > 100 µM (inactive)
GI50 (DLD-1): > 100 µM (inactive)
GI50 (DMS-114): > 100 µM (inactive)
GI50 (DMS-273): > 100 µM (inactive)
GI50 (EKVX): > 100 µM (inactive)
GI50 (HCC 2998): > 100 µM (inactive)
GI50 (HCT-116): > 100 µM (inactive)
GI50 (HCT-15): > 100 µM
GI50 (HL-60): > 100 µM (inactive)
GI50 (HOP-18): > 100 µM (inactive)
GI50 (HOP-92): > 100 µM (inactive)
GI50 (HT-29): > 100 µM (inactive)
GI50 (K562): > 100 µM (inactive)
GI50 (KM-20L2): > 100 µM (inactive)
GI50 (KM12): > 100 µM (inactive)
GI50 (LOX IMVI): > 100 µM (inactive)
GI50 (LXFL 529): > 100 µM (inactive)
GI50 (M14): > 100 µM (inactive)
GI50 (M19-MEL): > 100 µM (inactive)
GI50 (MOLT-4): > 100 µM (inactive)
GI50 (Malme-3M): > 100 µM (inactive)
GI50 (NCI-H226): > 100 µM (inactive)
GI50 (NCI-H23): > 100 µM (inactive)
GI50 (NCI-H460): > 100 µM (inactive)
GI50 (OVCAR-3): > 100 µM (inactive)
GI50 (OVCAR-4): > 100 µM (inactive)
GI50 (OVCAR-5): > 100 µM (inactive)
GI50 (OVCAR-8): > 100 µM (inactive)
GI50 (RPMI-8226): > 100 µM (inactive)
GI50 (RXF 393): > 100 µM (inactive)
GI50 (RXF 631): > 100 µM (inactive)
GI50 (SF-295): > 100 µM (inactive)
GI50 (SF-539): > 100 µM (inactive)
GI50 (SK-MEL-28): > 100 µM (inactive)
GI50 (SK-MEL-2): > 100 µM (inactive)
GI50 (SK-MEL-5): > 100 µM (inactive)
GI50 (SN12C): > 100 µM (inactive)
GI50 (SNB-19): > 100 µM (inactive)
GI50 (SNB-75): > 100 µM (inactive)
GI50 (SR): > 100 µM (inactive)
GI50 (SW-620): > 100 µM (inactive)
GI50 (TK-10): > 100 µM (inactive)
GI50 (U-251): > 100 µM (inactive)
GI50 (UACC-257): > 100 µM (inactive)
GI50 (UACC-62): > 100 µM (inactive)
GI50 (UO-31): > 100 µM (inactive)
GI50 (XF498): > 100 µM (inactive)
